According to patent EP1918289A2, “Crystalline fluoroquinolone arginine salt form” (Wockhardt Limited, priority 2002, dated 2005):

Experiments:
[1] = antibacterial activity (minimum inhibitory concentration, MIC); conditions: compared with the R-(+)- and RS-(±)- acids
[2] = hygroscopicity (exposure or storage at relative humidity, gravimetric); conditions: on exposure at a relative humidity of 41%

For `C[C@H]1CCc2c(N3CCC(O)CC3)c(F)cc3c(=O)c(C(=O)O)cn1c23`, the antimicrobial activity [1] was “more potent”.

For “S-(-)-9-fluoro-6,7-dihydro-8-(4-hydroxypiperidin-1-yl)-5-methyl-1-oxo-1 H,5H-benzo[i,j] quinolizine-2-carboxylic acid, L-arginine salt 0.25 hydrate”, the hygroscopicity [2] was “highly hygroscopic and turn into syrups”.

For “S-(-)-9-fluoro-6,7-dihydro-8-(4-hydroxypiperin-1-yl)-5-methyl-1-oxo-1H,5H-benzo[i,j] quinolizine-2-carboxylic acid, L-arginine salt, 0.75 hydrate”, the hygroscopicity [2] was “highly hygroscopic and turn into syrups”.
